Source: US20240383904A1, “HETEROCYCLIC COMPOUNDS” (Hoffmann-La Roche Inc., priority 2021, published 2024)

target: T1, MAGL (Homo sapiens, UniProt Q99685); assay: 2-AG assay: MAGL inhibitory activity by hydrolysis of 2-arachidonoylglycerol to arachidonic acid, followed by mass spectrometry; assay type: biochemical; conditions: 15 min preincubation, 30 min reaction at RT, 8 μM 2-arachidonoylglycerol
T1 sequence (Q99685 1-303): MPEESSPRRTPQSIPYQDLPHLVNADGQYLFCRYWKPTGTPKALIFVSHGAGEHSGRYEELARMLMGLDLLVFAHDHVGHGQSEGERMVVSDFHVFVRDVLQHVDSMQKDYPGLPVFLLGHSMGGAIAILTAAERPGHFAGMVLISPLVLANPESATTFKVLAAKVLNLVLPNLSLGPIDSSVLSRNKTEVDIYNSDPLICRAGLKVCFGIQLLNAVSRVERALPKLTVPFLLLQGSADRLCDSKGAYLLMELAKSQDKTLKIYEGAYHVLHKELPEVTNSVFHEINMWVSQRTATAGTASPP
Text: Compounds of formula (I) were profiled for MAGL inhibitory activity by determining the enzymatic activity by following the hydrolysis of the natural substrate 2-arachidonoylglycerol (2-AG) resulting in arachidonic acid, which can be followed by mass spectrometry. This assay is hereinafter abbreviated “2-AG assay”.
Compounds of formula (I) were profiled for MAGL inhibitory activity by determining the enzymatic activity by following the hydrolysis of the natural substrate 2-arachidonoylglycerol (2-AG) resulting in arachidonic acid, which can be followed by mass spectrometry. This assay is hereinafter abbreviated “2-AG assay”. The 2-AG assay was carried out in 384 well polypropylene assay plates. Compound dilutions were made in 100% DMSO in a polypropylene plate in 3-fold dilution steps to give a final concentration range in the assay from 12.5 μM to […]. Compound dilutions were added to MAGL protein in assay buffer (50 mM TRIS, 1 mM EDTA, 0.01% (v/v) Tween-20, 2.5% (v/v) DMSO). After shaking, the plate was incubated for 15 min at RT. To start the reaction, 2-arachidonoylglycerol in assay buffer was added. The final concentrations in the assay was […] for MAGL protein and 8 μM 2-arachidonoylglyerol. After shaking and 30 min incubation at RT, the reaction was quenched by the addition of two assay volumes of acetonitrile containing 4 μM of d8-arachidonic acid. The amount of arachidonic acid formed was traced by an online SPE system (Agilent Rapidfire) coupled to a triple quadrupole mass spectrometer. A C18 SPE cartridge (Agilent G9205A) was used in an acetonitrile/water liquid setup. The mass spectrometer was operated in negative electrospray mode following the mass transitions 303.1→259.1 for arachidonic acid and 311.1→267.0 for d8-arachidonic acid. The activity of the compounds was calculated based on the ratio of intensities [arachidonic acid/d 8-arachidonic acid].

Row | SMILES | IC50 [nM]
1 | O=C1NCC2(CN(C(=O)N3CC4(CC(Cc5ccc(C(F)(F)F)cc5F)C4)C3)C2)N1 [Example 25, 2-[6-[2-fluoro-4-(trifluoromethyl)benzyl]-2-azaspiro[3.3]heptane-2-carbonyl]-2,5,7-triazaspiro[3.4]octan-6-one] | 0.05
2 | O=C1NC2(CO1)CN(C(=O)N1CC3(CC(Cc4ccc(OC(F)(F)F)cn4)C3)C1)C2 [Example 26, 2-[6-[[5-(trifluoromethoxy)-2-pyridyl]methyl]-2-azaspiro[3.3]heptane-2-carbonyl]-7-oxa-2,5-diazaspiro[3.4]octan-6-one] | 0.11
3 | CS(=O)(=O)c1cc(C(F)(F)F)ccc1CC1CC2(C1)CN(C(=O)N1CC3(COC(=O)N3)C1)C2 [Example 27, 2-[6-[2-mesy1-4-(trifluoromethyl)benzyl]-2-azaspiro[3.3]heptane-2-carbonyl]-7-oxa-2,5-diazaspiro[3.4]octan-6-one] | 0.14
4 | O=C1NC2(CO1)CN(C(=O)N1CC3(CC(Cc4ncc(C(F)(F)F)cc4F)C3)C1)C2 [Example 28, 2-[6-[[3-fluoro-5-(trifluoromethyl)-2-pyridyl]methyl]-2-azaspiro[3.3]heptane-2-carbonyl]-7-oxa-2,5-diazaspiro[3.4]octan-6-one] | 0.23
5 | CS(=O)(=O)c1cc(CC2CC3(C2)CN(C(=O)N2CC4(COC(=O)N4)C2)C3)ccc1C(F)(F)F [Example 29, 2-[6-[3-mesyl-4-(trifluoromethyl)benzyl]-2-azaspiro[3.3]heptane-2-carbonyl]-7-oxa-2,5-diazaspiro[3.4]octan-6-one] | 0.34
6 | CS(=O)(=O)c1cc(F)cc(CC2CC3(C2)CN(C(=O)N2CC4(COC(=O)N4)C2)C3)c1 [Example 30, 2-[6-(3-fluoro-5-mesyl-benzyl)-2-azaspiro[3.3]heptane-2-carbonyl]-7-oxa-2,5-diazaspiro[3.4]octan-6-one] | 0.45
7 | O=C1NC2(CO1)CN(C(=O)N1CC3(CC(Cc4ccc(F)cn4)C3)C1)C2 [Example 31, 2-[6-[(5-fluoro-2-pyridyl)methyl]-2-azaspiro[3.3]heptane-2-carbonyl]-7-oxa-2,5-diazaspiro[3.4]octan-6-one] | 0.61
8 | O=C1NC2(CO1)CN(C(=O)N1CC3(CC(Cc4cnc(C(F)(F)F)nc4)C3)C1)C2 [Example 32, 2-[6-[[2-(trifluoromethyl)pyrimi-din-5-y1]methyl]-2-azaspiro[3.3]heptane-2-carbonyl]-7-oxa-2,5-diazaspiro[3.4]octan-6-one] | 0.67
9 | CS(=O)(=O)c1cccc(CC2CC3(C2)CN(C(=O)N2CC4(COC(=O)N4)C2)C3)c1 [Example 33, 2-[6-(3-mesylbenzyl)-2-azaspiro[3.3]heptane-2-carbonyl]-7-oxa-2,5-diazaspiro[3.4]octan-6-one] | 0.87
10 | O=C1NCC2(CN(C(=O)N3CC4(CC(Cc5ccc(F)cc5C(F)(F)F)C4)C3)C2)N1 [Example 34, 2-[6-[4-fluoro-2-(trifluoromethyl)benzyl]-2-azaspiro[3.3]heptane-2-carbonyl]-2,5,7-triazaspiro[3.4]octan-6-one] | 1.09
11 | CS(=O)(=O)c1cc(C(F)(F)F)ccc1CC1CC2(C1)CN(C(=O)N1CC3(CCC(=O)N3)C1)C2 [Example 35, 2-[6-[2-mesyl-4-(trifluoromethyl)benzyl]-2-azaspiro[3.3]heptane-2-carbonyl]-2,5-diazaspiro[3.4]octan-6-one] | 1.43
12 | O=C1NC2(CO1)CN(C(=O)N1CC3(CC(Cc4ccc(C(F)(F)F)nn4)C3)C1)C2 [Example 36, 2-[6-[[6-(trifluoromethyl)pyrida-zin-3-yl]methyl]-2-azaspiro[3.3]heptane-2-carbonyl]-7-oxa-2,5-diazaspiro[3.4]octan-6-one] | 1.43
13 | O=C1NC2(CO1)CN(C(=O)N1CC3(CC(Cc4cncc(F)c4)C3)C1)C2 [Example 37, 2-[6-[(5-fluoro-3-pyridyl)methyl]-2-azaspiro[3.3]heptane-2-carbonyl]-7-oxa-2,5-diazaspiro[3.4]octan-6-one] | 1.91
14 | O=C1NCC2(CN(C(=O)N3CC4(CC(Cc5ccc(F)cc5F)C4)C3)C2)N1 [Example 38, 2-[6-(2,4-difluorobenzyl)-2-azaspiro[3.3]heptane-2-carbonyl]-2,5,7-triazaspiro[3.4]octan-6-one] | 2.34
15 | CS(=O)(=O)c1ccc(CC2CC3(C2)CN(C(=O)N2CC4(CCC(=O)N4)C2)C3)cc1C(F)(F)F [Example 39, 2-[6-[4-mesy1-3-(trifluoromethyl)benzyl]-2-azaspiro[3.3]heptane-2-carbonyl]-2,5-diazaspiro[3.4]octan-6-one] | 2.38
16 | CS(=O)(=O)c1cc(CC2CC3(C2)CN(C(=O)N2CC4(CCC(=O)N4)C2)C3)ccc1C(F)(F)F [Example 40, 2-[6-[3-mesyl-4-(trifluoromethyl)benzyl]-2-azaspiro[3.3]heptane-2-carbonyl]-2,5-diazaspiro[3.4]octan-6-one] | 3.04
17 | CS(=O)(=O)c1cc(F)ccc1CC1CC2(C1)CN(C(=O)N1CC3(CCC(=O)N3)C1)C2 [Example 41, 2-[6-(4-fluoro-2-mesyl-benzyl)-2-azaspiro[3.3]heptane-2-carbonyl]-2,5-diazaspiro[3.4]octan-6-one] | 5.52
18 | O=C1NCC2(CN(C(=O)N3CC4(CC(Cc5ccc(C(F)(F)F)nc5)C4)C3)C2)N1 [Example 42, 2-[6-[[6-(trifluoromethyl)-3-pyridyl]methyl]-2-azaspiro[3.3]heptane-2-carbonyl]-2,5,7-triazaspiro[3.4]octan-6-one] | 53.4
19 | O=C1NC2(CCO1)CN(C(=O)N1CC3(CC(Cc4cnc(C(F)(F)F)cn4)C3)C1)C2 [Example 43, 2-[6-[[5-(trifluoromethyl)pyrazin-2-yl]methyl]-2-azaspiro[3.3]heptane-2-carbonyl]-7-oxa-2,5-diazaspiro[3.5]nonan-6-one] | 646
20 | CS(=O)(=O)c1ccc(CC2CC3(C2)CN(C(=O)N2CC4(COC(=O)N4)C2)C3)cc1C(F)(F)F [Example 44, 2-[6-[4-mesyl-3-(trifluoromethyl)benzyl]-2-azaspiro[3.3]heptane-2-carbonyl]-7-oxa-2,5-diazaspiro[3.4]octan-6-one] | 0.32
21 | O=C1NCC2(CN(C(=O)N3CC4(CCC(Cc5ccc(C(F)(F)F)cn5)CC4)C3)C2)N1 [Example 45, 2-[7-[[5-(trifluoromethyl)-2-pyridyl]methyl]-2-azaspiro[3.5]nonane-2-carbonyl]-2,5,7-triazaspiro[3.4]octan-6-one] | 26.3
22 | O=C1NC2(CO1)CN(C(=O)N1CC3(CCC(Cc4ccc(C(F)(F)F)cn4)C3)C1)C2 (stereo not shown) [Example 46, 2-[6-[[5-(trifluoromethyl)-2-pyridyl]methyl]-2-azaspiro[3.4]octane-2-carbonyl]-7-oxa-2,5-diazaspiro[3.4]octan-6-one] | 0.15
23 | O=C1NC2(CO1)CN(C(=O)N1CC3(CCC(Oc4ccc(C(F)(F)F)nn4)CC3)C1)C2 [Example 47, 2-[7-[6-(trifluoromethyl)pyrida-zin-3-y1]oxy-2-azaspiro[3.5]nonane-2-carbonyl]-7-oxa-2,5-diazaspiro[3.4]octan-6-one] | 2.94
24 | O=C1NC2(CO1)CN(C(=O)N1CC3(CC(c4ccc(S(=O)(=O)C(F)(F)F)cc4)C3)C1)C2 [Example 48, 2-[6-(4-triflylphenyl)-2-azaspiro[3.3]heptane-2-carbonyl]-7-oxa-2,5-diazaspiro[3.4]octan-6-one] | 0.15
25 | O=C1NC2(CO1)CN(C(=O)N1CC3(CC(CNC4(C(F)(F)F)CC4)C3)C1)C2 [Example 49, 2-[6-[[[1-(trifluoromethyl)cyclopro-ropyl]amino]methyl]-2-azaspiro[3.3]heptane-2-carbonyl]-7-oxa-2,5-diazaspiro[3.4]octan-6-one] | 0.77
26 | O=C1NC2(CO1)CN(C(=O)N1CC3(CC(NS(=O)(=O)c4cccc(C(F)(F)F)c4)C3)C1)C2 [Example 50, N-[2-(6-keto-7-oxa-2,5-diazaspiro[3.4]octane-2-carbonyl)-2-azaspiro[3.3]heptan-6-yl]-3-(trifluoromethyl)benzene-sulfonamide] | 0.78
27 | O=C1NC2(CO1)CN(C(=O)N1CC3(CC(Nc4ccc(C(F)(F)F)nn4)C3)C1)C2 [Example 51, 2-[6-[[6-(trifluoromethyl)pyrida-zin-3-yl]amino]-2-azaspiro[3.3]heptane-2-carbonyl]-7-oxa-2,5-diazaspiro[3.4]octan-6-one] | 24
28 | O=C1NC2(CCO1)CN(C(=O)N1CC3(CC(NS(=O)(=O)c4cccc(C(F)(F)F)c4)C3)C1)C2 [Example 52, N-[2-(6-keto-7-oxa-2,5-diazaspiro[3.5]nonane-2-carbonyl)-2-azaspiro[3.3]heptan-6-yl]-3-(trifluoromethyl)benzene-sulfonamide] | 742
